From the supplement of paper PMC7661543
± gives the standard deviation of the averaged measurements.

Key:
Experiment in all cases: relative cell number vs DMSO control (72 h) (% of DMSO); higher = less growth inhibition (more cells)
Settings in all cases: sgRNA knockout: sgNT
[1] = system: SKBR3
In short: (§1)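 Sample-specific 293T spike-in standard curves were used to interpolate cell numbers from sequenced sgRNA and cell-line barcode reads. These reads came from pooled Cas9-engineered breast cancer lines with 12 sgRNA perturbations each. The lines were induced with 100 ng/mL doxycycline for 6 days, seeded at 5000 cells per 96-well, and treated in duplicate for 72 h at four 10-fold doses (10 nM–10 μM or 1 nM–1 μM). Relative cell number is expressed in percent of the DMSO-treated sample median.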

[2] = system: HCC-38
In short: as §1

[3] = system: ZR-75-1
In short: as §1

[4] = system: BT-20
In short: as §1

[5] = system: MDA-MB-231
In short: as §1

Row | SMILES | relative cell number ([1]; 10 nM) | relative cell number ([1]; 100 nM) | relative cell number ([1]; 1000 nM) | relative cell number ([1]; 10000 nM) | relative cell number ([2]; 10 nM) | relative cell number ([2]; 100 nM) | relative cell number ([2]; 1000 nM) | relative cell number ([2]; 10000 nM) | relative cell number ([3]; 10 nM) | relative cell number ([3]; 100 nM) | relative cell number ([3]; 1000 nM) | relative cell number ([3]; 10000 nM) | relative cell number ([4]; 10 nM) | relative cell number ([4]; 100 nM) | relative cell number ([4]; 1000 nM) | relative cell number ([4]; 10000 nM) | relative cell number ([5]; 10 nM) | relative cell number ([5]; 100 nM) | relative cell number ([5]; 1000 nM) | relative cell number ([5]; 10000 nM) | relative cell number ([1]; 1 nM) | relative cell number ([2]; 1 nM) | relative cell number ([3]; 1 nM) | relative cell number ([4]; 1 nM) | relative cell number ([5]; 1 nM)
1 | CN(C)c1cc(NC(=O)CNC(C)(C)C)c(O)c2c1C[C@H]1C[C@H]3[C@H](N(C)C)C(O)=C(C(N)=O)C(=O)[C@@]3(O)C(O)=C1C2=O [Tigecycline] | 92.5 ± 19 | 69.1 ± 4.5 | 104 ± 33 | 65.6 ± 5.3 | 87.5 ± 6.1 | 107 ± 30 | 88.8 ± 2.6 | 102 ± 6.5 | 91.5 ± 11 | 96.2 ± 29 | 123 ± 24 | 90.1 ± 21 | 104 ± 12 | 97.4 ± 4.4 | 112 ± 24 | 118 ± 3.6 | 117 ± 16 | 92.1 ± 21 | 123 ± 18 | 83 ± 9.6 |  |  |  |  | 
2 | O=C1NC(=O)[C@@H](c2cn3c4c(cccc24)CCC3)[C@@H]1c1c[nH]c2ccccc12 [Tivantinib] | 94.9 ± 2.9 | 71.06 ± 0.6 | 19.5 ± 5.7 | 6.47 ± 2 | 89.1 ± 20 | 84.9 ± 14 | 39.6 ± 4.2 | 25.8 ± 3.1 | 69.2 ± 29 | 70.4 ± 1.6 | 20.4 ± 6.4 | 16.6 ± 1.9 | 109 ± 24 | 83.6 ± 12 | 53 ± 6.2 | 26 ± 1.1 | 107 ± 20 | 97.1 ± 6.3 | 34.2 ± 18 | 22.9 ± 13 |  |  |  |  | 
3 | COc1cc2nccc(Oc3ccc(NC(=O)Nc4cc(C)on4)c(Cl)c3)c2cc1OC [Tivozanib] | 103 ± 5.7 | 97.7 ± 19 | 96.2 ± 3.3 | 62.3 ± 7 | 94.3 ± 6.2 | 94.5 ± 10 | 98.6 ± 11 | 48.4 ± 2.2 | 83.6 ± 67 | 101 ± 13 | 115 ± 4.3 | 33.8 ± 12 | 87.3 ± 13 | 75.4 ± 7 | 101 ± 8.1 | 79.4 ± 11 | 101 ± 2.9 | 105 ± 6.9 | 94.7 ± 14 | 63.3 ± 3.9 |  |  |  |  | 
4 | CC[C@@]1(O)C(=O)OCc2c1cc1n(c2=O)Cc2cc3c(CN(C)C)c(O)ccc3nc2-1 [Topotecan] | 58.7 ± 5.9 | 34.7 ± 19 | 12.1 ± 2.9 | 6.08 ± 3.9 | 52.1 ± 9.8 | 20.9 ± 0.31 | 12.1 ± 1.6 | 8.742 ± 0.069 | 65.9 ± 3.4 | 37 ± 5.1 | 14 ± 5.7 | 11.8 ± 9.3 | 73.1 ± 10 | 49 ± 8.1 | 30.9 ± 2.8 | 12.1 ± 3.9 | 85.1 ± 59 | 26 ± 0.82 | 16.9 ± 1.2 | 8.21 ± 3.3 |  |  |  |  | 
5 | CC(=O)Nc1cccc(-n2c(=O)n(C3CC3)c(=O)c3c(Nc4ccc(I)cc4F)n(C)c(=O)c(C)c32)c1 [Trametinib] | 116 ± 3.5 | 72.4 ± 22 | 87 ± 36 | 58.7 ± 19 | 100 ± 5.3 | 78 ± 5.7 | 79.2 ± 5.8 | 71.3 ± 2.2 | 101 ± 9.6 | 51.9 ± 2.8 | 43.3 ± 13 | 40.3 ± 22 | 97.3 ± 1.3 | 65.2 ± 12 | 70.5 ± 16 | 82.8 ± 37 | 102 ± 27 | 66.9 ± 6 | 39.9 ± 6 | 20.1 ± 2.6 |  |  |  |  | 
6 | CN1CCN(CCCN2c3ccccc3Sc3ccc(C(F)(F)F)cc32)CC1 [Trifluoperazine] | 57.9 ± 35 | 79 ± 23 | 80.65 ± 0.72 | 50.3 ± 10 | 97.3 ± 7 | 86.1 ± 5.2 | 111 ± 8.7 | 80.4 ± 6.6 | 77.4 ± 46 | 81.3 ± 30 | 80.7 ± 20 | 37.4 ± 5.8 | 80.3 ± 46 | 90.7 ± 11 | 82.4 ± 4.9 | 78.4 ± 15 | 77.9 ± 18 | 117 ± 43 | 99.2 ± 25 | 77.8 ± 7.4 |  |  |  |  | 
7 | CC(C)[C@]12O[C@H]1[C@@H]1O[C@]13[C@]1(O[C@H]1C[C@H]1C4=C(CC[C@@]13C)C(=O)OC4)[C@@H]2O [Triptolide] | 54.6 ± 19 | 12.4 ± 9 | 8.93 ± 1.3 |  | 66 ± 0.14 | 23.4 ± 5.6 | 20.5 ± 2.7 |  | 78 ± 18 | 11.3 ± 8.5 | 7.98 ± 1.1 |  | 94.44 ± 0.19 | 39.9 ± 12 | 20.8 ± 7.7 |  | 44 ± 14 | 16.5 ± 7.3 | 13.7 ± 4.4 |  | 83.4 ± 9 | 97.9 ± 20 | 71.2 ± 23 | 93.1 ± 20 | 86.6 ± 8.6
8 | CN1CCc2c(c3ccccc3n2Cc2ccc(C(=O)NO)cc2)C1 [TubastatinA] | 104 ± 5.4 | 59.2 ± 14 | 86.4 ± 15 | 25.7 ± 14 | 122 ± 20 | 88.7 ± 16 | 114 ± 8.2 | 66 ± 2.6 | 80 ± 12 | 74 ± 43 | 93.1 ± 40 | 40.4 ± 1.6 | 98.7 ± 12 | 97.3 ± 11 | 116.9 ± 0.46 | 81.4 ± 33 | 81.3 ± 19 | 95.1 ± 14 | 138 ± 27 | 50.6 ± 17 |  |  |  |  | 
9 | Cc1onc(-c2ccccc2)c1-c1ccc(S(N)(=O)=O)cc1 [Valdecoxib] | 76.8 ± 16 | 86.5 ± 37 | 88.5 ± 38 | 124 ± 34 | 111 ± 12 | 91.8 ± 8.2 | 99.8 ± 13 | 98.4 ± 16 | 95.3 ± 73 | 76.8 ± 16 | 102 ± 37 | 112 ± 1.4 | 101 ± 5.5 | 107 ± 17 | 102 ± 21 | 99.62 ± 0.51 | 100 ± 22 | 113 ± 13 | 87.1 ± 4.7 | 82.6 ± 1.5 |  |  |  |  | 
10 | C[C@]1(c2nc3c(C(N)=O)cccc3[nH]2)CCCN1 [Veliparib] | 107 ± 26 | 104 ± 11 | 97.2 ± 27 | 72.7 ± 38 | 106 ± 11 | 104 ± 4.2 | 107 ± 18 | 89.6 ± 4.9 | 88.9 ± 56 | 96.9 ± 12 | 97.1 ± 24 | 51.4 ± 4.1 | 109 ± 41 | 116 ± 15 | 118 ± 38 | 91.9 ± 25 | 135 ± 51 | 144 ± 30 | 148 ± 33 | 97.2 ± 8.6 |  |  |  |  | 
11 | CC[C@]1(O)C[C@H]2CN(CCc3c([nH]c4ccccc34)[C@@](C(=O)OC)(c3cc4c(cc3OC)N(C=O)[C@H]3[C@@](O)(C(=O)OC)[C@H](OC(C)=O)[C@]5(CC)C=CCN6CC[C@]43[C@@H]65)C2)C1 [Vincristine] | 5.25 ± 0.24 | 3.5 ± 2.5 | 8.88 ± 0.92 | 6.97 ± 4.4 | 23.2 ± 4 | 22.5 ± 2.4 | 21.8 ± 2.9 | 21.1 ± 1.5 | 36.6 ± 5.9 | 22.3 ± 1.7 | 9.69 ± 0.85 | 17.1 ± 4.5 | 34.7 ± 4.6 | 22.5 ± 6.4 | 28.17 ± 0.087 | 34.5 ± 1.1 | 30.7 ± 3.3 | 14.4 ± 2.7 | 9.81 ± 3.5 | 8.55 ± 3.1 |  |  |  |  | 
12 | CCC[C@H](NC(=O)/C(C#N)=C/c1cccc(Br)n1)c1ccccc1 [WP1130] | 84 ± 36 | 51.2 ± 6.4 | 111 ± 7.9 | 8.93 ± 1.9 | 92.9 ± 2.6 | 103 ± 6.8 | 83.8 ± 11 | 6.78 ± 2 | 96.9 ± 44 | 59.7 ± 4.9 | 92.2 ± 22 | 6.81 ± 2.8 | 101 ± 53 | 78.7 ± 6.8 | 100 ± 7 | 8.98 ± 1.4 | 100 ± 26 | 87.3 ± 10 | 116 ± 47 | 11.7 ± 3.7 |  |  |  |  | 
